According to patent US5089654A, “Chalcone derivatives” (Taisho Pharmaceutical Co., Ltd., priority 1989, dated 1992):

Columns and labels:
stress ulcer = experiment: Stress Ulcer Inhibition Test; type: in vivo, Male Wistar rats; conditions: Rattus norvegicus, 7 h, oral, Wistar rats, read-out: Inhibition ratio (stress ulcer)
Experimental: Experiment 1 Stress Ulcer Inhibition Test
(§1) The test drugs used were the compounds obtained in the foregoing Examples. Number in test drug column of Table 8 means a compound which is prepared in the correspondingly numbered Example.
Also, symbols A-E in test drug column of Table 8 mean the following compounds used as the control compounds.
The stress ulcer inhibition test was carried out according to a method of K. Takagi et al as described in Japan J. Pharmacol., vol. 18, page 9 (1968).
Male Wistar rats weighing 160 to 180 g (7 animals for each group), after a 24 hour-fast, were given orally the test drug (50 mg/kg and/or 100 mg/kg) suspended in 0.4% CMC, and placed in the stress cage made of a galvanized wire net, which was then immerged into the thermostatic water bath kept on 23° C. until the lower part of the sternum of the animals. Seven hours later, the animals were lapotomized to measure the area of the mucosa produced in the stomach, and the inhibition ration was calculated.

[1] = test system: gastric lesions induced by 0.6 N hydrochloric acid; experiment: Gastric Mucosal Protection Test (gastric lesions induced by 0.6 N hydrochloric acid); type: in vivo, Male Wistar rats; conditions: Rattus norvegicus, oral, Wistar rats, 0.6 N HCl, read-out: Inhibition ratio (lesion index, gastric mucosal protection)
Experimental: Experiment 2 Gastric Mucosal Protection Test
as §1
Also, symbols A-E in test drug column of Table 9 are as defined in Experiment 1.
The test of protection effect against the gastric lesions induced by 0.6 N hydrochloric acid (gastric mucosal protection effect) was carried out according to a method of A. Robert et al as described in Gastroenterology,vol. 77, pages 433-443 (1979).
Male Wistar rats weighing 180-210 g (7 animals for each group), after a 24 hour-fast, were given orally the test drug (50 mg/kg and/or 100 mg/kg) suspended in 0.4% CMC. After standing at room temperature for 2 hours, 0.6 N hydrochloric acid was given orally in a dose of 1 ml per rat. After standing at room temperature for a further one hour, rats were killed to measure the length of the gastric mucosal lesions induced in the stomachs, and total of the length was designated as the lesion index per rat.
The inhibition ratio (%) was calculated by comparison of the lesion index of the group treated with the test drug with the untreated group.

gastric acid secretion = experiment: 2-DG-induced Acid Secretion Test, Gastric Lumen Perfused Rats; type: in vivo; conditions: intraperitoneal
Experimental: Experiment 3 2-DG-induced Acid Secretion Test Gastric Lumen Perfused Rats
The test was carried out according to the method of K. Watanabe et al in Eur. J. Pharmacology, vol. 90, page 11-17 (1983), and the inhibition ratio of gastric acid secretion of the test drug was calculated.
Number and symbol in test drug column are as defined above.
The test drug was given intraperitoneally.

Structure (SMILES) | inhibition in vivo at 50 mg/kg (stress ulcer) | inhibition in vivo at 50 mg/kg [1] | also measured
CC(C)=CCOc1ccc(C(=O)/C=C/c2ccc(C(=O)O)cc2)c(OCC(=O)O)c1 [A, 4-carboxy-2'-carboxymethoxy-4'-(3-methyl-2-butenyloxy)chalcone, reference compound] | < 10% | < 10% | 
CCC(C)c1ccc(/C=C/C(=O)c2ccc(OCC=C(C)C)cc2OCC(=O)O)cc1 (centres unmarked) [Example 24] | 70.5% |  | 
CCCc1ccc(/C=C/C(=O)c2ccc(OCC=C(C)C)cc2OCC(=O)O)cc1 [E, 2'-carboxymethoxy-4'-(3-methyl-2-butenyloxy)-4-n-propylchalcone, reference compound] | 33.7% | 24.8% | inhibition in vivo at 100 mg/kg (stress ulcer): 57.1%
CCCCCCCc1ccc(/C=C/C(=O)c2ccc(OCC=C(C)C)cc2OCC(=O)OCC)cc1 [Example 18] |  | 37.6% | inhibition in vivo at 100 mg/kg [1]: 53.8%
CC(C)=CCOc1ccc(C(=O)/C=C/c2ccc(C)cc2)c(OCC(=O)O)c1 [D, 2'-carboxymethoxy-4-methyl-4'-(3-methyl-2-butenyloxy)chalcone, reference compound] | < 10% | < 10% | inhibition in vivo at 100 mg/kg (stress ulcer): 26.2%
CC(C)=CCOc1ccc(/C=C/C(=O)c2ccc(OCC=C(C)C)cc2OCC(=O)O)cc1 [C, 2'-carboxymethoxy-4,4'-bis(3-methyl-2-butenyloxy)chalcone, reference compound] | < 10% | < 10% | Inhibition ratio of gastric acid secretion (gastric acid secretion; 200 mg/kg): 35.2%
CCCCCc1ccc(/C=C/C(=O)c2ccc(OCC=C(C)C)cc2OCC(=O)O)cc1 [Example 27] | 86.3% |  | 
CCCCCCCc1ccc(/C=C/C(=O)c2ccc(OCC=C(C)C)cc2OCC(=O)O)cc1 [Example 30, 2'-carboxymethoxy-4-n-heptyl-4'-(3-methyl-2-butenyloxy)chalcone] | 91.8% | 83.8% | inhibition in vivo at 100 mg/kg [1]: 94.4%
CCCCC/C=C/c1ccc(/C=C/C(=O)c2ccc(OCC=C(C)C)cc2OCC(=O)O)cc1 [Example 52] | 93.4% |  | 
CC(C)=CCOc1ccc(C(=O)/C=C/c2ccc(CCC(C)C)cc2)c(OCC(=O)O)c1 [Example 28] | 89% |  | 
CC(C)=CCOc1ccc(C(=O)/C=C/c2ccc(C(C)(C)C)cc2)c(OCCCC(=O)O)c1 [Example 48] |  |  | inhibition in vivo at 100 mg/kg (stress ulcer): 72%
CCCCCCCCCCCCCCCc1ccccc1/C=C/C(=O)c1ccc(OCC=C(C)C)cc1OCC(=O)O [Example 36] | 48.7% |  | 
C=CCCc1ccc(/C=C/C(=O)c2ccc(OCC=C(C)C)cc2OCC(=O)O)cc1 [Example 54] | 56.9% |  | 
CCCCCCc1ccc(/C=C/C(=O)c2ccc(OCC=C(C)C)cc2OCC(=O)O)cc1 [Example 29, 2'-carboxymethoxy-4-n-hexyl-4'-(3-methyl-2-butenyloxy)chalcone] | 67.3% | 81.2% | inhibition in vivo at 100 mg/kg [1]: 83.7%
CC(C)=CCOc1ccc(C(=O)/C=C/c2ccc(C(C)(C)C)cc2)c(OC(C)C(=O)O)c1 (centres unmarked) [Example 45, 4-(t-butyl)-2'-(1-carboxethoxy)-4'-(3-methyl-2-butenyloxy)chalcone] | 50.4% |  | 
CC(C)=CCOc1ccc(C(=O)/C=C/c2ccc(OCC(=O)O)cc2)c(OCC(=O)O)c1 [B, 2',4-bis(carboxymethoxy)-4'-(3-methyl-2-butenyloxy)chalcone, reference compound] | < 10% | < 10% | 
CCCC/C=C/c1ccc(/C=C/C(=O)c2ccc(OCC=C(C)C)cc2OCC(=O)O)cc1 [Example 51] | 93.3% |  | 
CCCCCCCCc1ccc(/C=C/C(=O)c2ccc(OCC=C(C)C)cc2OCC(=O)O)cc1 [Example 31] | 77.2% |  | 
CCCCCCc1ccc(/C=C/C(=O)c2ccc(OCC=C(C)C)cc2OC(C)C(=O)O)cc1 (centres unmarked) [Example 46] | 63% |  | 
CCCCc1ccc(/C=C/C(=O)c2ccc(OCC=C(C)C)cc2OCC(=O)O)cc1 [Example 25] | 61% |  | inhibition in vivo at 100 mg/kg (stress ulcer): 63%
CC(C)=CCOc1ccc(C(=O)/C=C/c2ccc(C(C)(C)C)cc2)c(OCC(=O)O)c1 [Example 44, 4-t-butyl-2'-carboxymethoxy-4'-(3-methyl-2-butenyloxy)chalcone] | 76% | 61.9% | inhibition in vivo at 100 mg/kg (stress ulcer): 84.2%; inhibition in vivo at 100 mg/kg [1]: 82.8%; Inhibition ratio of gastric acid secretion (gastric acid secretion; 30 mg/kg): 54.3%; Inhibition ratio of gastric acid secretion (gastric acid secretion; 100 mg/kg): 66.8%
CCCCCC/C=C/c1ccc(/C=C/C(=O)c2ccc(OCC=C(C)C)cc2OCC(=O)O)cc1 [Example 49, 2'-carboxymethoxy-4'-(3-methyl-2-butenyloxy)-4-(1-(E)-octenyl)chalcone] | 76.6% |  | 
